The record followed here is patent publication US20230348376A1 (TEIJIN PHARMA LIMITED, priority 2020, published 2023).

The subject of assay [1] is rat oligodendrocyte progenitor cells. Put plainly: Promotive activity of rat oligodendrocyte progenitor cell differentiation-1 (MBP gene expression, mRNA). It is filed as cell-based. The note with it: Rattus norvegicus, Oligodendrocyte progenitor cell, 96 h, read-out: promotive activity at T3 base (MBP gene expression; DMSO 0%, T3 100%), 4 days, MBP/β actin mRNA. The essentials:
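Primary OPCs from 1-day-old SD rat forebrain, isolated by shaking off mixed glial cultures and seeded at 2×10^3 cells/well in B27/CNTF (10 ng/mL) differentiation medium with compound. MBP mRNA measured by one-step TaqMan real-time PCR and expressed as MBP/β-actin ratio.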

Assay [2] shares this test system. Nature of the assay: Promotive activity of rat oligodendrocyte progenitor cell differentiation-2 (immunostaining of MBP). It is filed as cell-based. The note with it: Test 2; vitamin D derivative 2 μM, T3 30 nM; 4 days. The essentials: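 Vitamin D derivatives scored as symbols for promoting differentiation, read out by MBP immunostaining. OPCs taken from supernatant after about 22 h shaking (37 °C, 200 rpm) in separation medium.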

The target in another assay is T1, human VDR (Homo sapiens, UniProt P11473).
T1 sequence (P11473 1-427): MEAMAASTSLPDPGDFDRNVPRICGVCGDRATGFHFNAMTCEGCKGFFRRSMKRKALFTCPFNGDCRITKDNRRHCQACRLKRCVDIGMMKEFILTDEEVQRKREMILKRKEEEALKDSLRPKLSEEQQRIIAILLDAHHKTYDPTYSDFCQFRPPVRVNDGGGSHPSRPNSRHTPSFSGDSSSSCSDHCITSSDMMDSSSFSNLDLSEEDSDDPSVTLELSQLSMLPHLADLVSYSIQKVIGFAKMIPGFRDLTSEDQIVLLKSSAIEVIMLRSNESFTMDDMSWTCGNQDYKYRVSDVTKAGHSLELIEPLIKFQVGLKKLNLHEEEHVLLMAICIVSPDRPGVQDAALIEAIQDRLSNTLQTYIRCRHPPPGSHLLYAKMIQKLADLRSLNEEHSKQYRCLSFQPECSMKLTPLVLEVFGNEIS
T1 sequence (P19793 1-462 partner): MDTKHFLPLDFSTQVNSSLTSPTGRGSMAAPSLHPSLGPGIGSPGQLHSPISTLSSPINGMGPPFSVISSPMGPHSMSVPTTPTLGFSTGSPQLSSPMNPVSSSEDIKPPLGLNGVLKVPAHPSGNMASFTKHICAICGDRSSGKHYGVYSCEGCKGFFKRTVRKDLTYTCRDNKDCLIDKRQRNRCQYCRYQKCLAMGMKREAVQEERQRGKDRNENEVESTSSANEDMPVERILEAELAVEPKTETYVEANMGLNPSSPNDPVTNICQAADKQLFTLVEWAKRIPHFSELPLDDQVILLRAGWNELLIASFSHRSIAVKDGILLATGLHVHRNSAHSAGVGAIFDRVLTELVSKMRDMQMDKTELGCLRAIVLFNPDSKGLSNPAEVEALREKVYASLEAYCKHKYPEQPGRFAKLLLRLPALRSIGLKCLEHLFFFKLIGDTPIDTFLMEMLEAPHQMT
Nature of the assay: Evaluation of VDR transcription activity in human osteoblasts (HOS cells), luciferase reporter. The following applies: Activity (EC50, VDR transcription activity), HOS cells transfected with human VDR, human RXRα and DR3 luciferase reporter; 21 hours.

The term EC50 denotes the concentration at which the effect is half-maximal. A high value points to a need for much substance.

For the compound `C[C@H](CCN1CCOCC1)[C@H]1CC[C@H]2/C(=C/C=C3C[C@@H](O)C[C@H](O)C3)CCC[C@]12C` [Compound D023, (1R,3R)-5-(2-((1R,3aS,7aR,E)-7a-methyl-1-((R)-4-morpholinobutan-2-yl)octahydro-4H-inden-4-ylidene)ethylidene)cyclohexane-1,3-diol], the activation at 1 µM in assay [1] is no less than 20%. Besides, the “Mean (number of MBP-positive cells/number of Hoechst33342-positive cells)” value in assay [2] is recorded as 0.36. The compound also came in with an EC50 at human VDR of 10 to 100 nM.
